Reference: patent US20180353501A1 (Arvinas, Inc., priority 2017, published 2018)

Target: T1, FLAG-p38δ (Homo sapiens, UniProt O15264)
T1 construct: expressed in transfected cells; host or cells: HeLa cells, transient transfection with Lipofectamine 2000
T1 sequence (O15264 1-365): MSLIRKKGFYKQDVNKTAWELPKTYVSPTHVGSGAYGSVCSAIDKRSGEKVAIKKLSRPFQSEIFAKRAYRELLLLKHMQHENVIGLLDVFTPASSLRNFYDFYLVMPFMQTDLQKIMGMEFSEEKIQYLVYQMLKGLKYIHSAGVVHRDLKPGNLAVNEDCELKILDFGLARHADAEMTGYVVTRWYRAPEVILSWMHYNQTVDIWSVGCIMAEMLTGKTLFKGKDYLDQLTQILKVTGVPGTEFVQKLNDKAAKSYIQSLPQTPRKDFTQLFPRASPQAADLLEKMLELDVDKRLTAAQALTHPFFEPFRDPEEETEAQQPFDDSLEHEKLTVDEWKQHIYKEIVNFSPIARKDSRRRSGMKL
Assay: Ubiquitination assay, HeLa cells co-transfected with HA-Ub and FLAG-p38δ
Type: cell-based
Conditions: 1 μM
Description: FIGS. 15A, 15B, and 15C. Differential p38δ:PROTAC:VHL ternary complex affinities result in distinct cellular ubiquitination outcomes. (A) Both exemplary compound 50 and 46 pull-down p38δ in vitro, however compound 46 maintains ternary complex at lower concentrations. As in FIG. 14A, GST-tagged VBC was used as a bait to trap recombinant p38δ in the presence of vehicle (DMSO) or the indicated concentrations of compound 50 or 46. The rightmost lane represents a 1:25 dilution of initial input protein used in each pull-down. […] Samples were assessed by western blot and CUL2 and α-tubulin serve as positive and negative GST-VBC immunoprecipitation controls, respectively. […] FLAGimmunoprecipitated lysates were separated by SDS-PAGE and assessed via western blots detecting HA (Ub). […]
HeLa cells (2×10^6) were seeded into 10 cm dishes and allowed to adhere overnight. […] Lysates were spun down at 14,000×g at 4° C. for 20 minutes and protein content was measured by Pierce BCA Protein Assay (ThermoFisher Scientific). […] Immunoprecipitated protein was eluted off of the beads by heating at 95° C. for 5 minutes and the supernatant was run on an SDS-PAGE gel and evaluated for the presence of immunoprecipitated FLAG-tagged proteins (anti-FLAG M2, Sigma #F1804), as well as ubiquitinated FLAG-tagged proteins (anti-HA-tag (6E2), CST #2367). […]

SMILES	ubiquitination of FLAG-immunoprecipitated p38δ
COc1cc2c(Oc3ccc(NC(=O)C4(C(=O)Nc5ccc(F)cc5)CC4)cc3F)ccnc2cc1OCCOCCOCCOc1cc(-c2scnc2C)ccc1CNC(=O)[C@@H]1C[C@@H](O)CN1C(=O)[C@H](C(C)C)N1Cc2ccccc2C1=O [compound 46]	levels of ubiquitination of FLAG-immunoprecipitated p38δ greater than control cells
COc1cc2c(Oc3ccc(NC(=O)C4(C(=O)Nc5ccc(F)cc5)CC4)cc3F)ccnc2cc1OCCCCOCCCCOCC(=O)N[C@H](C(=O)N1C[C@H](O)C[C@H]1C(=O)NCc1ccc(-c2scnc2C)cc1)C(C)(C)C [compound 50, N-(3-fluoro-4-((7-(4-(4-(2-(((S)-1-((2S,4R)-4-hydroxy-2-((4-(4-methylthiazol-5-yl)benzyl)carbamoyl)pyrrolidin-1-yl)-3,3-dimethyl-1-oxobutan-2-yl)amino)-2-oxoethoxy)butoxy)buto-xy)-6-methoxyquinolin-4-yl)oxy)phenyl)-N-(4-fluorophenyl)cyclopropane-1,1-dicarboxa-mide]	far less abundant
